In patent US8455475B2 (Gruenenthal GmbH, priority 2009, dated 2013):

Target: T1, rat B1R (bradykinin receptor 1) (Rattus norvegicus, UniProt P97583)
T1 construct: expressed in transfected cells; host or cells: CHO K1 cells
T1 sequence (P97583 1-337): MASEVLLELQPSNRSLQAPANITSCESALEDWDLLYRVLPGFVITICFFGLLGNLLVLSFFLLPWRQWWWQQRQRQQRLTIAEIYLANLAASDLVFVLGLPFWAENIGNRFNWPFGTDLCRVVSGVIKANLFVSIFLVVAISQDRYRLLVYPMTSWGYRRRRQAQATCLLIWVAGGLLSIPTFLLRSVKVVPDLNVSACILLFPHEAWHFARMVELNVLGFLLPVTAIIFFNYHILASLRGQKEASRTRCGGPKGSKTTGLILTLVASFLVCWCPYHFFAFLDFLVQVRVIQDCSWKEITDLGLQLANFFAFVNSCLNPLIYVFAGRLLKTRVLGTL
Experiment: FLIPR Ca2+ assay (Fluo-4) on CHO K1 cells stably transfected with the B1R gene of the rat (rB1R cells): % inhibition at 10 μM / IC50, agonist Des-Arg9-bradykinin
Format: cell-based
Conditions: CHO-K1, rat B1R
How it was run: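 Stably transfected CHO K1 cells loaded with Fluo-4 and read on FLIPR (λex 488, λem 540 nm; peak fluorescence). Test substance (10 μM) added first, then after 10–20 min the agonist at EC80; % inhibition versus maximum achievable inhibition. IC50 from several concentrations, n=2–3, N≥2.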

| Structure (SMILES) | inhibition at 10 µM [%] |
| --- | --- |
| O=C(NC1CCc2ccc(C(=O)N3CCC4(CCN(Cc5ccc(F)c(F)c5)CC4)C3)cc21)c1cc(C(F)(F)F)ccc1Cl (stereo not shown) [IND_CC-633, 2-Chloro-N-[6-[8-[(3,4-difluoro-phenyl)-methyl]-2,8-diazaspiro[4.5]decane-2-carbonyl]-2,3-dihydro-1H-inden-1-yl]-5-(trifluoromethyl)-benzamide] | 86 |
| O=C(NC1CCc2ccc(C(=O)N3CCC4(CCN(Cc5cc(F)ccc5F)CC4)C3)cc21)c1cc(C(F)(F)F)ccc1Cl (stereo not shown) [IND_CC-634, 2-Chloro-N-[6-[8-[(2,5-difluoro-phenyl)-methyl]-2,8-diazaspiro[4.5]decane-2-carbonyl]-2,3-dihydro-1H-inden-1-yl]-5-(trifluoromethyl)-benzamide] | 75 |
| COc1cccc(F)c1CN1CCC2(CC1)CCN(C(=O)c1ccc3c(c1)C(NC(=O)c1cc(C(F)(F)F)ccc1Cl)CC3)C2 (stereo not shown) [IND_CC-637, 2-Chloro-N-[6-[8-[(2-fluoro-6-methoxy-phenyl)-methyl]-2,8-diazaspiro[4.5]-decane-2-carbonyl]-2,3-dihydro-1H-inden-1-yl]-5-(trifluoromethyl)-benzamide] | 69 |
| O=C(NC1CCc2ccc(C(=O)N3CCC4(CCN(Cc5ccncc5)CC4)CC3)cc21)c1cc(C(F)(F)F)ccc1Cl (stereo not shown) [IND_CC-641, 2-Chloro-N-[6-[9-(pyridin-4-yl-methyl)-3,9-diazaspiro[5.5]undecane-3-carbonyl]-2,3-dihydro-1H-inden-1-yl]-5-(trifluoromethyl)-benzamide] | 74 |
| O=C(NC1CCc2ccc(C(=O)N3CCC4(CCN(Cc5ccc(F)c(F)c5)CC4)CC3)cc21)c1cc(C(F)(F)F)ccc1Cl (stereo not shown) [IND_CC-645, 2-Chloro-N-[6-[9-[(3,4-difluoro-phenyl)-methyl]-3,9-diazaspiro[5.5]undecane-3-carbonyl]-2,3-dihydro-1H-inden-1-yl]-5-(trifluoromethyl)-benzamide] | 78 |
| COc1ccc(CN2CCC3(CC2)CCN(C(=O)c2ccc4c(c2)C(NC(=O)c2cc(C(F)(F)F)ccc2Cl)CC4)CC3)cc1F (stereo not shown) [IND_CC-648, 2-Chloro-N-[6-[9-[(3-fluoro-4-methoxy-phenyl)-methyl]-3,9-diazaspiro[5.5]-undecane-3-carbonyl]-2,3-dihydro-1H-inden-1-yl]-5-(trifluoromethyl)benzamide] | 78 |
| COc1cccc(F)c1CN1CCC2(CC1)CCN(C(=O)c1ccc3c(c1)C(NC(=O)c1cc(C(F)(F)F)ccc1Cl)CC3)CC2 (stereo not shown) [IND_CC-649, 2-Chloro-N-[6-[9-[(2-fluoro-6-methoxy-phenyl)-methyl]-3,9-diazaspiro[5.5]-undecane-3-carbonyl]-2,3-dihydro-1H-inden-1-yl]-5-(trifluoromethyl)benzamide] | 76 |
| N#Cc1ccc(CN2CCC3(CC2)CCN(C(=O)c2ccc4c(c2)C(NC(=O)c2cc(Cl)ccc2F)CC4)C3)cc1 (stereo not shown) [IND_CC-650, 5-Chloro-N-[6-[8-[(4-cyano-phenyl)-methyl]-2,8-diazaspiro[4.5]decane-2-carbonyl]-2,3-dihydro-1H-inden-1-yl]-2-fluoro-benzamide] | 54 |
| N#Cc1cccc(CN2CCC3(CC2)CCN(C(=O)c2ccc4c(c2)C(NC(=O)c2cc(Cl)ccc2F)CC4)C3)c1 (stereo not shown) [IND_CC-651, 5-Chloro-N-[6-[8-[(3-cyano-phenyl)-methyl]-2,8-diazaspiro[4.5]decane-2-carbonyl]-2,3-dihydro-1H-inden-1-yl]-2-fluoro-benzamide] | 76 |
| Cc1nc[nH]c1CN1CCC2(CC1)CCN(C(=O)c1ccc3c(c1)C(NC(=O)c1cc(C(F)(F)F)ccc1Cl)CC3)C2 (stereo not shown) [IND_CC-655, 2-Chloro-N-[6-[8-[(5-methyl-3H-imidazol-4-yl)-methyl]-2,8-diazaspiro[4.5]-decane-2-carbonyl]-2,3-dihydro-1H-inden-1-yl]-5-(trifluoromethyl)-benzamide] | 59 |
| O=C(NC1CCc2ccc(C(=O)N3CCC4(CCN(Cc5csnn5)CC4)C3)cc21)c1cc(C(F)(F)F)ccc1Cl (stereo not shown) [IND_CC-656, 2-Chloro-N-[6-[8-([1,2,3]thiadiazol-4-yl-methyl)-2,8-diazaspiro[4.5]decane-2-carbonyl]-2,3-dihydro-1H-inden-1-yl]-5-(trifluoromethyl)-benzamide] | 51 |
| Cc1noc(C)c1CN1CCC2(CC1)CCN(C(=O)c1ccc3c(c1)C(NC(=O)c1cc(C(F)(F)F)ccc1Cl)CC3)C2 (stereo not shown) [IND_CC-657, 2-Chloro-N-[6-[8-[(3,5-dimethyl-isoxazol-4-yl)-methyl]-2,8-diazaspiro[4.5]-decane-2-carbonyl]-2,3-dihydro-1H-inden-1-yl]-5-(trifluoromethyl)-benzamide] | 66 |

Continued, values first:

| inhibition at 10 µM [%] | Structure (SMILES) |
| --- | --- |
| 72 | O=C(NC1CCc2ccc(C(=O)N3CCC4(CCN(Cc5ccc(F)cc5F)CC4)C3)cc21)c1cc(C(F)(F)F)ccc1Cl (stereo not shown) [IND_CC-635, 2-Chloro-N-[6-[8-[(2,4-difluoro-phenyl)-methyl]-2,8-diazaspiro[4.5]decane-2-carbonyl]-2,3-dihydro-1H-inden-1-yl]-5-(trifluoromethyl)-benzamide] |
| 79 | COc1ccc(CN2CCC3(CC2)CCN(C(=O)c2ccc4c(c2)C(NC(=O)c2cc(C(F)(F)F)ccc2Cl)CC4)C3)cc1F (stereo not shown) [IND_CC-636, 2-Chloro-N-[6-[8-[(3-fluoro-4-methoxy-phenyl)-methyl]-2,8-diazaspiro[4.5]-decane-2-carbonyl]-2,3-dihydro-1H-inden-1-yl]-5-(trifluoromethyl)-benzamide] |
| 80 | O=C(NC1CCc2ccc(C(=O)N3CCC4(CCN(Cc5ccc[nH]5)CC4)CC3)cc21)c1cc(C(F)(F)F)ccc1Cl (stereo not shown) [IND_CC-638, 2-Chloro-N-[6-[9-(1H-pyrrol-2-yl-methyl)-3,9-diazaspiro[5.5]undecane-3-carbonyl]-2,3-dihydro-1H-inden-1-yl]-5-(trifluoromethyl)-benzamide] |
| 78 | O=C(NC1CCc2ccc(C(=O)N3CCC4(CCN(Cc5c[nH]cn5)CC4)CC3)cc21)c1cc(C(F)(F)F)ccc1Cl (stereo not shown) [IND_CC-639, 2-Chloro-N-[6-[9-(1H-imidazol-4-yl-methyl)-3,9-diazaspiro[5.5]undecane-3-carbonyl]-2,3-dihydro-1H-inden-1-yl]-5-(trifluoromethyl)-benzamide] |
| 73 | O=C(NC1CCc2ccc(C(=O)N3CCC4(CCN(Cc5ccccn5)CC4)CC3)cc21)c1cc(C(F)(F)F)ccc1Cl (stereo not shown) [IND_CC-640, 2-Chloro-N-[6-[9-(pyridin-2-yl-methyl)-3,9-diazaspiro[5.5]undecane-3-carbonyl]-2,3-dihydro-1H-inden-1-yl]-5-(trifluoromethyl)-benzamide] |
| 77 | O=C(NC1CCc2ccc(C(=O)N3CCC4(CCN(Cc5cccnc5)CC4)CC3)cc21)c1cc(C(F)(F)F)ccc1Cl (stereo not shown) [IND_CC-642, 2-Chloro-N-[6-[9-(pyridin-3-yl-methyl)-3,9-diazaspiro[5.5]undecane-3-carbonyl]-2,3-dihydro-1H-inden-1-yl]-5-(trifluoromethyl)-benzamide] |
| 78 | Cn1cccc1CN1CCC2(CC1)CCN(C(=O)c1ccc3c(c1)C(NC(=O)c1cc(C(F)(F)F)ccc1Cl)CC3)CC2 (stereo not shown) [IND_CC-643, 2-Chloro-N-[6-[9-[(1-methyl-1H-pyrrol-2-yl)-methyl]-3,9-diazaspiro[5.5]-undecane-3-carbonyl]-2,3-dihydro-1H-inden-1-yl]-5-(trifluoromethyl)benzamide] |
| 59 | O=C(NC1CCc2ccc(C(=O)N3CCC4(CCN(Cc5c(F)cccc5F)CC4)CC3)cc21)c1cc(C(F)(F)F)ccc1Cl (stereo not shown) [IND_CC-644, 2-Chloro-N-[6-[9-[(2,6-difluoro-phenyl)-methyl]-3,9-diazaspiro[5.5]undecane-3-carbonyl]-2,3-dihydro-1H-inden-1-yl]-5-(trifluoromethyl)-benzamide] |
| 66 | O=C(NC1CCc2ccc(C(=O)N3CCC4(CCN(Cc5cc(F)ccc5F)CC4)CC3)cc21)c1cc(C(F)(F)F)ccc1Cl (stereo not shown) [IND_CC-646, 2-Chloro-N-[6-[9-[(2,5-difluoro-phenyl)-methyl]-3,9-diazaspiro[5.5]undecane-3-carbonyl]-2,3-dihydro-1H-inden-1-yl]-5-(trifluoromethyl)-benzamide] |
| 73 | O=C(NC1CCc2ccc(C(=O)N3CCC4(CCN(Cc5ccc(F)cc5F)CC4)CC3)cc21)c1cc(C(F)(F)F)ccc1Cl (stereo not shown) [IND_CC-647, 2-Chloro-N-[6-[9-[(2,4-difluoro-phenyl)-methyl]-3,9-diazaspiro[5.5]undecane-3-carbonyl]-2,3-dihydro-1H-inden-1-yl]-5-(trifluoromethyl)-benzamide] |
| 53 | O=C(NC1CCc2ccc(C(=O)N3CCC4(CCN(Cc5csnn5)CC4)CC3)cc21)c1cc(Cl)ccc1F (stereo not shown) [IND_CC-652, 5-Chloro-2-fluoro-N-[6-[9-([1,2,3]thiadiazol-4-yl-methyl)-3,9-diazaspiro[5.5]undecane-3-carbonyl]-2,3-dihydro-1H-inden-1-yl]-benzamide] |
| 64 | N#Cc1ccc(CN2CCC3(CC2)CCN(C(=O)c2ccc4c(c2)C(NC(=O)c2cc(Cl)ccc2F)CC4)CC3)cc1 (stereo not shown) [IND_CC-653, 5-Chloro-N-[6-[9-[(4-cyano-phenyl)-methyl]-3,9-diazaspiro[5.5]undecane-3-carbonyl]-2,3-dihydro-1H-inden-1-yl]-2-fluoro-benzamide] |
| 60 | N#Cc1cccc(CN2CCC3(CC2)CCN(C(=O)c2ccc4c(c2)C(NC(=O)c2cc(Cl)ccc2F)CC4)CC3)c1 (stereo not shown) [IND_CC-654, 5-Chloro-N-[6-[9-[(3-cyano-phenyl)-methyl]-3,9-diazaspiro[5.5]undecane-3-carbonyl]-2,3-dihydro-1H-inden-1-yl]-2-fluoro-benzamide] |
